From patent US10456343B2, “Microemulsion compositions comprising polydatin and method of use” (L'OREAL, priority 2017, dated 2019)

Assay: Solubility of polydatin in the microemulsion compositions
Type: physicochemical
Settings: solubilized in microemulsion
Description: The inventors of the instant disclosure discovered that the incorporation of polydatin into the microemulsion compositions disclosed herein results in a variety of surprising and unexpected results. […] A higher amount of solubilized polydatin is particularly beneficial in cosmetic compositions for application to the skin because it allows for increased transdermal delivery. The inventors also unexpectedly discovered that polydatin acts as a “clarifying agent,” i.e., it improves or enhances the transparency (clarity) of microemulsion compositions. […] Both formulations include baicalin. […] Thus, in addition to polydatin, the microemulsion composition of the instant disclosure are effective for incorporating baicalin into cosmetic and/or pharmaceutical compositions.

- solubility of polydatin in the microemulsion compositions: up to 1.5%
Compound: OC[C@H]1O[C@@H](Oc2cc(O)cc(/C=C/c3ccc(O)cc3)c2)[C@H](O)[C@@H](O)[C@@H]1O [polydatin, 3,4′,5-trihydroxystibene-3-β-mono-D glucoside]
